“Also recorded” adds a separate entry of the source.
Key:
dihydroceramides = assay: lipidomic analysis of ceramides and dihydroceramides in T6PNE cells; assay type: cell-based, human; details: 2 days after treatment
Procedure: Ceramides and dihydroceramides were measured in the UCSD Lipidomics Core Facility as previously described (Quehenberger et al.). Briefly, samples were extracted using the butanol: methanol (BUME) method. The lipid layer was collected and run on a Thermo-Vanquish UPLC (Thermo Scientific) with a Cortecs T3 (C18), 2.1 mm×150 mm; 1.8 uT3 column and a binary solvent system. Mass spectrometry employed a Thermo Q Exactive instrument with MS/MS data dependent acquisition scan mode and LipidSearch software (Thermo Fisher Scientific).

HNF4a mRNA = HNF4a mRNA in primary human hepatocytes; assay type: cell-based; details: high fat media, 5, 15, 40 µM, Day 4 to Day 10
Procedure: Experiments with primary human hepatocytes were performed by CN-Bio (Cambridge, UK). Primary human hepatocytes (PHHs), human Kupffer cells (HKs) and human stellate cells (HSCs) were seeded onto CN-Bio's PhysioMimix LC12 MPS culture plates at 6×10^5 cells for PHHs and 6×10^4 cells for HKs and HSCs in 1.6 ml of CN-Bio's HEP-lean media with 5% FCS. Throughout the experiment the cells were maintained at a flow rate of 1 μl/s. After 24 h (Day 1) of seeding, the media was changed to HEP-lean media and the cells were incubated until day 4 to allow the cells to form microtissues. At day 4 post seeding, media was changed to HEP-fat media and treated with DMSO or NCT (5, 15, 40 μM). Media was replaced on days 6 and 8. Cells were harvested on day 10 for RNA extraction. Data are presented as mean ±SEM of three or more samples as indicated. Statistical significance was assessed using Student's t-test, ANOVA or R^2 coefficient of correlation.

LC3B = assay: anti-LC3B Western blot in T6PNE cells; assay type: cell-based, human; details: 10 μM
Procedure: Whole-cell extracts were prepared by incubation in RIPA buffer (Invitrogen) containing protease inhibitors (Calbiochem, San Diego, Calif.). Protein ([…]) was separated on 12% or 16% Tri-Glycine gels (Invitrogen) and transferred to Immobilon P membrane (0.2 μm pore, Millipore). After 1 h in phosphate-buffered saline-Tween (PBST) with 3% milk, membrane was incubated with antibodies to HNF4α (mouse, Novus, 1:1000), LC3B (rabbit, Novus, 1:500), p62 (SQSTM1, mouse, Santa Cruz, 1:1000) or β-actin (mouse, Santa Cruz, 1:2000), followed by secondary antibody conjugated to horseradish peroxidase (1:5000, Jackson Immune).

SPNS2 mRNA = assay: SPNS2 qPCR in mouse liver; assay type: in vivo
Procedure: Quantitative PCR (Q-PCR) from in vitro cell culture experiments used total RNA purified using RNeasy Kits (Qiagen). For liver tissue samples, total RNA was isolated using Trizol (Invitrogen) and prepared for RNAseq (mouse liver DMSO and NCT, N=3). cDNA was amplified using 3 μg of total RNA using qScript cDNA SuperMix (Quanta BioSciences, Beverly, Mass., USA). QPCR analysis was performed using SYBR® Select Master Mix (Applied Biosystems) and ABI 7900HT (Applied Biosystems, Thermo Fisher Scientific). The Ct values of mRNA expression were then normalized to the 18 s rRNA values and are expressed as fold change over samples from mice fed normal chow for in vivo experiments or DMSO controls for cell culture experiments.

O=C(/C=C/c1ccc(O)c(O)c1)NCCc1ccc(O)cc1 [NCT, N-trans-caffeoyltyramine]
dihydroceramide production (dihydroceramides): multiple dihydroceramides were increased; also recorded: induced multiple identical dihydroceramides | dihydroceramide production (dihydroceramides; listed as N-trans-caffeoyltyramine): Dihydroceramide was induced | HNF4a mRNA (HNF4a mRNA): significantly induced | LC3B-II to LC3B-I ratio (LC3B): induced increases | SPNS2 expression in mouse liver (SPNS2 mRNA): did not induce a change in SPNS2 expression; also recorded: not mouse liver
